Results published in patent US12655116B2, “Substituted isophthalic acid diamides” (Bayer Aktiengesellschaft, priority 2020, dated 2026).

Experiments:
ABUTH [1] = assay: Pre-emergence herbicidal action against ABUTH; type: in vivo, Abutilon theophrasti; conditions: for Pre-emergence action against ABUTH (herbicidal activity): 80 g/ha, scored visually after 3 weeks vs untreated controls (100% = plants have died, 0% = like control plants)
Excerpt: (§1) Seeds of monocotyledonous and dicotyledonous weed plants and crop plants are laid out in sandy loam soil in wood-fiber pots and covered with soil. The compounds of the invention, formulated in the form of wettable powders (WP) or as emulsion concentrates (EC), are then applied to the surface of the covering soil in the form of an aqueous suspension or emulsion at a water application rate equivalent to 600 to 800 l/ha, with addition of 0.2% wetting agent. After the treatment, the pots are placed in a greenhouse and kept under good growth conditions for the trial plants. The damage to the test plants is scored visually after a test period of 3 weeks by comparison with untreated controls (herbicidal activity in percent (%): 100% activity=the plants have died, 0% activity=like control plants). […] The tables below illustrate, in an illustrative manner, the post-emergence herbicidal action of the compounds of the invention, the herbicidal activity being stated in percent.

AMARE [2] = assay: Pre-emergence herbicidal action against AMARE; type: in vivo, Amaranthus retroflexus
Excerpt: as §1

VERPE = assay: Pre-emergence herbicidal action against VERPE; type: in vivo, Veronica persica
Excerpt: as §1

AMARE [3] = assay: Post-emergence herbicidal action against AMARE; type: in vivo, Amaranthus retroflexus; conditions: 20 g/ha, visual assessment about 3 weeks after treatment, 100% = plants have died, 0% = like control plants
Experimental: (§2) Seeds of monocotyledonous and dicotyledonous weed and crop plants are laid out in sandy loam soil in wood-fiber pots, covered with soil and cultivated in a greenhouse under good growth conditions. 2 to 3 weeks after sowing, the test plants are treated at the one-leaf stage. The compounds of the invention, formulated in the form of wettable powders (WP) or as emulsion concentrates (EC), are then sprayed onto the green parts of the plants in the form of an aqueous suspension or emulsion at a water application rate equivalent to 600 to 800 l/ha, with addition of 0.2% wetting agent. After the test plants have been left to stand in the greenhouse under optimal growth conditions for about 3 weeks, the action of the preparations is assessed visually in comparison to untreated controls (herbicidal action in percent (%): 100% activity=the plants have died, 0% activity=like control plants). […] The tables below illustrate, in an illustrative manner, the post-emergence herbicidal action of the compounds of the invention, the herbicidal activity being stated in percent.

VIOTR [4] = assay: Pre-emergence herbicidal action against VIOTR; type: in vivo, Viola tricolor; conditions: dosage 80 g/ha
Excerpt: as §1

ABUTH [5] = assay: Post-emergence herbicidal action against ABUTH; type: in vivo, Abutilon theophrasti; conditions: visual assessment about 3 weeks after treatment vs untreated controls
Experimental: as §2

MATIN = assay: Pre-emergence herbicidal action against MATIN; type: in vivo, Matricaria inodora
Excerpt: as §1

PHBPU = assay: Post-emergence herbicidal action against PHBPU; type: in vivo, Pharbitis purpurea; conditions: dosage 20 g/ha
Experimental: as §2

SETVI [6] = assay: Post-emergence herbicidal action against SETVI; type: in vivo, Setaria viridis
Experimental: as §2

ALOMY = assay: Pre-emergence herbicidal action against ALOMY; type: in vivo, Alopecurus myosuroides; conditions: 80 g/ha, pre-emergence, scored visually after 3 weeks vs untreated controls (100% = plants have died, 0% = like control plants)
Excerpt: as §1

ECHCG [7] = assay: Pre-emergence herbicidal action against ECHCG; type: in vivo, Echinochloa crus-galli; conditions: 80 g/ha
Excerpt: as §1

DIGSA [8] = assay: Pre-emergence herbicidal action against DIGSA; type: in vivo, Digitaria sanguinalis
Excerpt: as §1

ECHCG [9] = assay: Post-emergence herbicidal action against ECHCG; type: in vivo, Echinochloa crus-galli
Experimental: as §2

DIGSA [10] = assay: Post-emergence herbicidal action against DIGSA; type: in vivo, Digitaria sanguinalis; conditions: for Post-emergence action against DIGSA: 20 g/ha; for Post-emergence action against DIGSA in %: 5 g/ha
Experimental: as §2

SETVI [11] = assay: Pre-emergence herbicidal action against SETVI; type: in vivo, Setaria viridis; conditions: dosage 80 g/ha
Excerpt: as §1

AVEFA = assay: Pre-emergence herbicidal action against AVEFA; type: in vivo, Avena fatua; conditions: 80 g/ha, pre-emergence
Excerpt: as §1

VIOTR [12] = assay: Post-emergence herbicidal action against VIOTR; type: in vivo, Viola tricolor; conditions: 20 g/ha
Experimental: as §2

[13] = 20 g/ha, scored visually after 3 weeks vs untreated controls, 100% = plants have died, 0% = like control plants
[14] = 80 g/ha, scored visually after 3 weeks vs untreated controls (100% = plants have died, 0% = like control plants)

SMILES | Pre-emergence action against ABUTH (herbicidal activity) (ABUTH [1]) | Pre-emergence action against AMARE in % (AMARE [2]; [13]) | Pre-emergence action against AMARE in % (AMARE [2]; [14]) | Pre-emergence action against VERPE in % (VERPE; dosage 80 g/ha) | Post-emergence action at 20 g/ha against AMARE in % (AMARE [3]) | Pre-emergence action against VIOTR in % (VIOTR [4]) | Post-emergence action against ABUTH in % (ABUTH [5]; dosage 20 g/ha) | Pre-emergence action against MATIN in % (MATIN; dosage 20 g/ha) | Pre-emergence action against MATIN in % (MATIN; dosage 80 g/ha) | Post-emergence action against SETVI in % (SETVI [6]; dosage 20 g/ha) | Pre-emergence action against ECHCG in % (ECHCG [7]) | Pre-emergence action against DIGSA in % (DIGSA [8]; dosage 20 g/ha) | Pre-emergence action against DIGSA in % (DIGSA [8]; dosage 80 g/ha) | Post-emergence action against ECHCG in % (ECHCG [9]; dosage 20 g/ha) | Post-emergence action against DIGSA (DIGSA [10]) | Pre-emergence action against SETVI in % (SETVI [11]) | Post-emergence action against DIGSA in % (DIGSA [10]) | further results
Cc1c(C(=O)Nc2nnnn2C)ccc(C(F)(F)F)c1C(=O)NCC#N [Example 1-36] | 100% | 100% | 100% | 90% | 100% |  |  |  |  |  |  |  |  |  |  |  |  | 
Cn1nnnc1NC(=O)c1ccc(C(F)F)c(C(=O)NCC#N)c1Cl [Example 1-158] |  | 100% | 100% | 80% | 90% | 90% | 80% |  |  |  |  |  |  |  |  |  |  | Pre-emergence action against VERPE in % (VERPE; dosage 20 g/ha): 80%
CCn1nnnc1NC(=O)c1ccc(C(F)(F)F)c(C(=O)Nc2ccccc2)c1Cl [Example 2-143] | 100% |  | 100% | 80% |  | 80% | 80% | 90% | 100% |  |  |  |  |  |  |  |  | Post-emergence action against PHBPU in % (PHBPU): 80%
CCn1nnnc1NC(=O)c1ccc(C(F)F)c(C(=O)NCC#N)c1Cl [Example 2-158] | 100% |  | 100% | 90% |  | 100% |  |  | 90% | 90% |  |  |  |  |  |  |  | Pre-emergence action against VERPE in % (VERPE; dosage 20 g/ha): 80%; Post-emergence action against SETVI in % (SETVI [6]; dosage 5 g/ha): 90%
Cc1nnc(NC(=O)c2ccc(C(F)F)c(C(=O)NCC3CC3)c2C)o1 [Example 6-34] | 100% | 100% | 100% |  | 100% |  | 80% |  | 90% | 90% | 100% | 100% | 100% | 90% | 80% |  |  | Pre-emergence action against ALOMY (herbicidal activity) (ALOMY): 80%; Post-emergence action against ABUTH in % (ABUTH [5]; dosage 5 g/ha): 80%; Post-emergence action against ECHCG in % (ECHCG [9]; dosage 5 g/ha): 80%; Post-emergence action against PHBPU in % (PHBPU): 80%
CNC(=O)c1c(C(F)(F)F)ccc(C(=O)Nc2nnc(C)o2)c1OC [Example 6-43] | 100% |  | 100% |  |  |  |  |  | 80% | 90% | 100% |  | 100% |  | 100% | 90% | 90% | 
CCNC(=O)c1c(C(F)(F)F)ccc(C(=O)Nc2nnc(C)o2)c1OC [Example 6-44] |  | 80% | 100% |  | 90% |  | 80% |  | 80% | 80% | 100% |  |  | 90% | 90% | 90% | 80% | 
COc1c(C(=O)Nc2nnc(C)o2)ccc(C(F)(F)F)c1C(=O)NC1CC1 [Example 6-45] | 90% | 80% | 100% |  | 80% | 90% | 90% |  | 90% | 100% | 80% | 90% | 100% | 90% | 90% | 100% | 90% | Post-emergence action against ABUTH in % (ABUTH [5]; dosage 5 g/ha): 80%
CCNC(=O)c1c(C(F)F)ccc(C(=O)Nc2nnc(C)o2)c1SC [Example 6-75] |  |  |  |  |  |  |  |  |  |  |  |  | 80% |  | 90% |  |  | 
Cc1nnc(NC(=O)c2ccc(C(F)F)c(C(=O)NCC(F)(F)F)c2Br)o1 [Example 6-168] | 100% | 90% | 100% |  | 100% |  |  | 80% | 90% |  | 90% |  |  | 80% |  | 90% |  | Pre-emergence action against ALOMY (herbicidal activity) (ALOMY): 80%; Pre-emergence action against AVEFA in % (AVEFA): 80%; Post-emergence action against ECHCG in % (ECHCG [9]; dosage 5 g/ha): 80%
CCc1c(C(=O)Nc2nnc(C)o2)ccc(C(F)(F)F)c1C(=O)NC [Example 6-210] | 100% |  | 100% |  | 100% | 90% | 90% | 80% | 90% | 100% | 90% | 100% | 100% | 80% | 90% | 100% | 90% | Post-emergence action against SETVI in % (SETVI [6]; dosage 5 g/ha): 90%; Post-emergence action against VIOTR in % (VIOTR [12]): 80%
Cc1nnc(NC(=O)c2ccc(C(F)F)c(C(=O)NC3CCC3)c2Cl)o1 [Example 6-261] | 100% | 100% | 100% |  | 90% |  | 80% | 90% | 100% |  | 100% | 80% | 100% | 90% | 90% | 100% |  | Pre-emergence action against ABUTH (herbicidal activity in percent) (ABUTH [1]; dosage 20 g/ha, scored visually after 3 weeks vs untreated controls, 100% = plants have died, 0% = like control plants): 80%
COCCNC(=O)c1c(C(F)F)ccc(C(=O)Nc2nnc(C)o2)c1Cl [Example 6-262] | 100% | 90% | 100% |  | 90% | 90% | 90% |  | 100% | 80% | 90% | 100% | 100% | 80% | 90% | 100% |  | Post-emergence action against ABUTH in % (ABUTH [5]; dosage 5 g/ha): 80%
